From patent publication US20240239753A1, “METHOD FOR CRYSTALLIZATION OF AROMATIC AMINO ACIDS, ENABLING SUSTAINABLE CYCLE OF AMMONIA” (CJ CheilJedang Corporation, priority 2021, published 2024) come the findings set out here.

The series in a line: Analysis of solubility of L-tryptophan depending on pH of solution. The settings on record: distilled water/ammonia water mixtures, 30° C., stirring 12 hours or more, supernatant by HPLC; pH of the solution 10 or more (FIG. 2). The format is physicochemical. As for the experimental part:
Measurement of solubility of L-tryptophan amino acids was performed in a 1 L jacket reactor made of glass. After mixing distilled water and ammonia water in the 1 L jacket reactor at various ratios, an excess of L-tryptophan crystals was added and they were stirred, thereby preparing a reaction solution comprising L-tryptophan crystals. After that, while maintaining the internal temperature of the reactor at 30° C. constantly using freezing/heating circulation apparatus (model F35, Julabo, Germany), these conditions were applied with stirring for 12 hours or more. Then, when the stirring was stopped and all L-tryptophan crystals were sunk, a part of clear supernatant was transferred to a syringe sampler equipped with a 0.45 μm syringe filter. At this time, the pH of the corresponding solution was measured suing a pH measuring instrument (model S220, Mettler Toledo, US). The concentration of the corresponding sample was measured using HPLC, after diluting with tertiary distilled water using a volumetric flask. The concentration of the supernatant sample was assumed with the solubility, and the change in solubility of L-tryptophan depending on pH of solution was shown in FIG. 2. In other words, the pH of the solution could be confirmed that the solubility of L-tryptophan increased from the time when the pH of the solution was to be 10 or more.

Structures are written as SMILES.

As for `N[C@@H](Cc1c[nH]c2ccccc12)C(=O)O` [L-tryptophan], the “change in solubility of L-tryptophan depending on pH of solution” value is “increased”.
